Test results reported in ChEMBL document CHEMBL3885861, “Open TG-GATES”.

Species: Rattus norvegicus
Assay: Open TG-GATES - Regimen: Single
Type: toxicity, organism-based, Sprague-Dawley
Design: regimen Single, gender Male, age 6 weeks
Settings: in vivo, po, 300 mg/kg, route gavage, dose level Low; for APTT / Bas / Eos / Fbg / Hb / Ht / Lym / MCH / MCHC / MCV / Mono / Neu / PT / Plat / RBC / Ret / WBC: tissue Blood; for KIDNEY_L / KIDNEY_R / KIDNEY_TOTAL: tissue Kidney; for LIVER: tissue Liver; for A/G / ALP / ALT / AST / BUN / CRE / Ca / Cl / DBIL / GLC / IP / K / LDH / Na / PL / RALB / TBIL / TC / TG / TP / gamma-GTP: tissue Plasma

COc1ccc(O)c(C(C)(C)C)c1.COc1ccc(O)cc1C(C)(C)C [BUTYLATED HYDROXYANISOLE] gave a TERMINAL_BW (3 h) of 204.6 g, an APTT (3 h) of 16.4 s and a Bas (3 h) of 0.2%. For the same compound, the Eos (3 h) was 0.6%, the Fbg (3 h) was 281.2 mg/dL and the Hb (3 h) was 13.8 g/dL. It also gave a Ht (3 h) of 39.9%, a Lym (3 h) of 75% and an MCH (3 h) of 21.7 pg. It also gave an MCHC (3 h) of 34.5%, an MCV (3 h) of 63.1 fL and a Mono (3 h) of 2.5%. The Neu (3 h) was 20.7%, the PT (3 h) was 12 s and the Plat (3 h) was 133.9 x10_4/uL. For the same compound, the RBC (3 h) was 633.4 x10_4/ul, the Ret (3 h) was 8.1% and the WBC (3 h) was 97.5 x10_2/uL. The KIDNEY_L (3 h) was 0.9 g, the KIDNEY_R (3 h) was 0.9 g and the KIDNEY_TOTAL (3 h) was 1.8 g. It also gave an LIVER (3 h) of 8.5 g, an A/G (3 h) of 0.8 and an ALP (3 h) of 1752.8 IU/L. It also gave an ALT (3 h) of 41.8 IU/L, an AST (3 h) of 75.4 IU/L and a BUN (3 h) of 10.2 mg/dL. It also gave a CRE (3 h) of 0.2 mg/dL, a Ca (3 h) of 11.3 mg/dL and a Cl (3 h) of 107.8 meq/L. For the same compound, the DBIL (3 h) was 0.052 mg/dL, the GLC (3 h) was 173.2 mg/dL and the IP (3 h) was 9.1 mg/dL. For the same compound, the K (3 h) was 3.9 meq/L, the LDH (3 h) was 75.6 IU/L and the Na (3 h) was 141.8 meq/L. It also gave a PL (3 h) of 154.4 mg/dL, an RALB (3 h) of 2.7 g/dL and a TBIL (3 h) of 0.082 mg/dL. For the same compound, the TC (3 h) was 80.8 mg/dL, the TG (3 h) was 149.4 mg/dL and the TP (3 h) was 5.8 g/dL. The gamma-GTP (3 h) was 1 IU/L, the TERMINAL_BW (6 h) was 202.1 g and the APTT (6 h) was 16.2 s. It also gave a Bas (6 h) of 0.2%, an Eos (6 h) of 0.7% and a Fbg (6 h) of 257.2 mg/dL. The Hb (6 h) was 13.3 g/dL, the Ht (6 h) was 39.1% and the Lym (6 h) was 72%. The MCH (6 h) was 21.2 pg, the MCHC (6 h) was 33.9% and the MCV (6 h) was 62.4 fL. The Mono (6 h) was 2.5%, the Neu (6 h) was 23.7% and the PT (6 h) was 12.3 s. For the same compound, the Plat (6 h) was 131.2 x10_4/uL, the RBC (6 h) was 627.4 x10_4/ul and the Ret (6 h) was 7.7%. The WBC (6 h) was 91.5 x10_2/uL, the KIDNEY_L (6 h) was 0.9 g and the KIDNEY_R (6 h) was 0.9 g. The KIDNEY_TOTAL (6 h) was 1.8 g, the LIVER (6 h) was 7.9 g and the A/G (6 h) was 0.9. The ALP (6 h) was 1829.2 IU/L, the ALT (6 h) was 38 IU/L and the AST (6 h) was 72.8 IU/L. For the same compound, the BUN (6 h) was 9.4 mg/dL, the CRE (6 h) was 0.2 mg/dL and the Ca (6 h) was 11.1 mg/dL. It also gave a Cl (6 h) of 107.8 meq/L, a DBIL (6 h) of 0.03 mg/dL and a GLC (6 h) of 172.4 mg/dL. The IP (6 h) was 10.3 mg/dL, the K (6 h) was 4.2 meq/L and the LDH (6 h) was 60.2 IU/L. For the same compound, the Na (6 h) was 143.2 meq/L, the PL (6 h) was 134.4 mg/dL and the RALB (6 h) was 2.6 g/dL. It also gave a TBIL (6 h) of 0.074 mg/dL, a TC (6 h) of 75 mg/dL and a TG (6 h) of 65.8 mg/dL. It also gave a TP (6 h) of 5.7 g/dL, a gamma-GTP (6 h) of 1.4 IU/L and a TERMINAL_BW (9 h) of 199.4 g. It also gave an APTT (9 h) of 16.9 s, a Bas (9 h) of 0.2% and an Eos (9 h) of 0.7%. It also gave a Fbg (9 h) of 273.6 mg/dL, a Hb (9 h) of 13.4 g/dL and a Ht (9 h) of 39.1%. For the same compound, the Lym (9 h) was 76.3%, the MCH (9 h) was 20.7 pg and the MCHC (9 h) was 34.3%. For the same compound, the MCV (9 h) was 60.5 fL, the Mono (9 h) was 1.9% and the Neu (9 h) was 20.1%. It also gave a PT (9 h) of 13.1 s, a Plat (9 h) of 145.3 x10_4/uL and an RBC (9 h) of 647.4 x10_4/ul. For the same compound, the Ret (9 h) was 7.4%, the WBC (9 h) was 69.4 x10_2/uL and the KIDNEY_L (9 h) was 0.9 g. For the same compound, the KIDNEY_R (9 h) was 0.9 g, the KIDNEY_TOTAL (9 h) was 1.7 g and the LIVER (9 h) was 7.5 g. The A/G (9 h) was 0.8, the ALP (9 h) was 1688.6 IU/L and the ALT (9 h) was 30.6 IU/L. The AST (9 h) was 66.4 IU/L, the BUN (9 h) was 8.2 mg/dL and the CRE (9 h) was 0.2 mg/dL. The Ca (9 h) was 10.8 mg/dL, the Cl (9 h) was 108 meq/L and the DBIL (9 h) was 0.026 mg/dL. The GLC (9 h) was 163.8 mg/dL, the IP (9 h) was 10.1 mg/dL and the K (9 h) was 4 meq/L. For the same compound, the LDH (9 h) was 48.4 IU/L, the Na (9 h) was 142.8 meq/L and the PL (9 h) was 134.6 mg/dL. The RALB (9 h) was 2.6 g/dL, the TBIL (9 h) was 0.088 mg/dL and the TC (9 h) was 77.4 mg/dL. For the same compound, the TG (9 h) was 66 mg/dL, the TP (9 h) was 5.6 g/dL and the gamma-GTP (9 h) was 1.4 IU/L. It also gave a TERMINAL_BW (24 h) of 215.1 g, an APTT (24 h) of 15.4 s and a Bas (24 h) of 0.3%. The Eos (24 h) was 0.7%, the Fbg (24 h) was 256.6 mg/dL and the Hb (24 h) was 13 g/dL. It also gave a Ht (24 h) of 38%, a Lym (24 h) of 82.1% and an MCH (24 h) of 21.3 pg. It also gave an MCHC (24 h) of 34.1%, an MCV (24 h) of 62.3 fL and a Mono (24 h) of 2.3%. The Neu (24 h) was 13.9%, the PT (24 h) was 12 s and the Plat (24 h) was 142.8 x10_4/uL. The RBC (24 h) was 610.6 x10_4/ul, the Ret (24 h) was 6.9% and the WBC (24 h) was 97.1 x10_2/uL. It also gave a KIDNEY_L (24 h) of 0.9 g, a KIDNEY_R (24 h) of 0.9 g and a KIDNEY_TOTAL (24 h) of 1.8 g. For the same compound, the LIVER (24 h) was 9.6 g, the A/G (24 h) was 0.9 and the ALP (24 h) was 1667 IU/L. The ALT (24 h) was 47.2 IU/L, the AST (24 h) was 79 IU/L and the BUN (24 h) was 15 mg/dL. It also gave a CRE (24 h) of 0.2 mg/dL, a Ca (24 h) of 11.4 mg/dL and a Cl (24 h) of 106.4 meq/L. For the same compound, the DBIL (24 h) was 0.028 mg/dL, the GLC (24 h) was 166.4 mg/dL and the IP (24 h) was 7.8 mg/dL. It also gave a K (24 h) of 4.2 meq/L, an LDH (24 h) of 63 IU/L and a Na (24 h) of 143.2 meq/L. For the same compound, the PL (24 h) was 135.2 mg/dL, the RALB (24 h) was 2.7 g/dL and the TBIL (24 h) was 0.078 mg/dL. For the same compound, the TC (24 h) was 78.2 mg/dL, the TG (24 h) was 110.2 mg/dL and the TP (24 h) was 5.7 g/dL. It also gave a gamma-GTP (24 h) of 1 IU/L.
